The values below come from ChEMBL document CHEMBL1201862, “PubChem BioAssay data set” (2004).

The structures appear in SMILES notation.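 Each compound was tested at five concentrations against cells in 96-well plates for 48 hours. At the GI50, growth is halved.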 Activity calls are given as the source filed them. Cut-off read from the data, not from the text of the source: active = GI50 up to about 1.1 µM and inactive = higher.

Test systems include A498; A549; CAKI-1; CCRF-CEM; DU-145; HCT-15; HOP-62; HT-29; IGROV-1; K562; KM12; MCF7; MDA-MB-231; MOLT-4; NCI-H23; RPMI-8226; SF-539; SNB-75; U-251; UACC-62.
Common to all, as to test: growth of human tumour cells (NCI), 48 h

With `CC(O)CCC(=O)c1ccoc1` (stereo not given), the GI50 with A498 is 3820 µM (inactive); in the assay with A549, 3940 µM (inactive); in the assay on CAKI-1 it was 2730 µM (inactive); with CCRF-CEM, 5650 µM (inactive); in the assay with DU-145, 8200 µM (inactive); in the assay on HCT-15, 7660 µM. The GI50 in the assay on HOP-62 is 6930 µM (inactive); in the assay with HT-29, 8450 µM (inactive); with IGROV-1, 7290 µM (inactive); in the assay on K562 it was 6180 µM (inactive); in the assay on KM12 it was 7710 µM (inactive); with MCF7 it was 5680 µM (inactive). For the same molecule, the GI50 in the assay on MDA-MB-231 was > 7830 µM (inactive); with MOLT-4, 4080 µM (inactive); in the assay on NCI-H23, 8110 µM (inactive); in the assay with RPMI-8226, 3740 µM (inactive); in the assay with SF-539 it was 9930 µM (inactive); with SNB-75, 3500 µM (inactive). Moreover, the GI50 with U-251 is 6780 µM (inactive); with UACC-62 it was 5210 µM (inactive).

Consider `C=C(C=O)c1c2c(nc3ccccc13)C(=O)c1ccccc1C2=O`, for which the GI50 was 1.46 µM (inactive) in the assay with A498; 1.86 µM (inactive) in the assay with A549; 0.52 µM (active) in the assay with CAKI-1; 0.191 µM (active) in the assay on CCRF-CEM; 0.286 µM (active) with DU-145; 0.298 µM with HCT-15. For the same molecule, the GI50 in the assay on HOP-62 is 1.15 µM (inactive); in the assay with HT-29 it was 0.47 µM (active); in the assay on IGROV-1 it was 0.252 µM (active); in the assay with K562 it was 0.391 µM (active); in the assay with KM12 it was 1.22 µM (inactive); in the assay on MCF7, 0.429 µM (active). Moreover, the GI50 in the assay on MDA-MB-231 is 1.18 µM (inactive); in the assay on MOLT-4, 0.282 µM (active); with NCI-H23, 0.481 µM (active); in the assay with RPMI-8226, 0.296 µM (active); in the assay on SF-539, 0.673 µM (active); in the assay with SNB-75, 1.14 µM (inactive). The values for the GI50 with U-251 and with UACC-62 were 0.482 µM (active) and 0.918 µM (active), respectively.

With `Cc1c(C)c(C)c(-n2c(=O)n(C)c(=O)n2-c2cc(C(C)(C)C)cc(C(C)(C)C)c2O)c(C)c1C`, the GI50 is 13.1 µM (inactive) with A498; 5.66 µM (inactive) in the assay with A549; 11.7 µM (inactive) in the assay with CAKI-1; 8.13 µM (inactive) in the assay on CCRF-CEM; 12.7 µM (inactive) in the assay with DU-145; 8.43 µM in the assay with HCT-15. For the same molecule, the GI50 in the assay with HOP-62 is 14.4 µM (inactive); with HT-29, 3.64 µM (inactive); in the assay with IGROV-1, 10.1 µM (inactive); in the assay with K562, 6.21 µM (inactive); with KM12 it was 11.8 µM (inactive); in the assay with MCF7 it was 4.06 µM (inactive). Besides, the GI50 was 3.91 µM (inactive) in the assay on MDA-MB-231; 4.18 µM (inactive) in the assay with MOLT-4; 7.91 µM (inactive) in the assay on NCI-H23; 4.63 µM (inactive) with RPMI-8226; 10.5 µM (inactive) in the assay on SF-539; 4.14 µM (inactive) in the assay with SNB-75. In addition, the GI50 in the assay on U-251 is 6.95 µM (inactive); in the assay with UACC-62, 11.1 µM (inactive).

As for `COC(=O)[C@@H](Cc1ccccc1)N1O[C@]12CCCC[C@@H]2NC(=O)OC(C)(C)C` (stereo not given in full), the GI50 is 41.8 µM (inactive) in the assay with A498; 29.2 µM (inactive) with A549; 35.8 µM (inactive) in the assay on CAKI-1; 14.7 µM (inactive) in the assay with CCRF-CEM; 29.4 µM (inactive) with DU-145; 18.4 µM with HCT-15. The GI50 in the assay with HOP-62 is 18.6 µM (inactive); in the assay with HT-29, 18.3 µM (inactive); in the assay with IGROV-1, 14.7 µM (inactive); in the assay with K562 it was 40.1 µM (inactive); in the assay with KM12, 48 µM (inactive); in the assay on MCF7, 15.2 µM (inactive). The GI50 was 19.5 µM (inactive) in the assay on MDA-MB-231; 37.5 µM (inactive) in the assay with MOLT-4; 21.3 µM (inactive) in the assay on NCI-H23; 44.5 µM (inactive) in the assay with RPMI-8226; 19.2 µM (inactive) with SF-539; 30.4 µM (inactive) in the assay on SNB-75. The figures for the GI50 in the assay with U-251 and with UACC-62 were 26.9 µM (inactive) and 23.2 µM (inactive), respectively.

For `CC(C)(Br)C(Br)CC/C(=C/CBr)CBr.CC(C)(Br)C(Br)CC/C(=C\CBr)CBr` (stereo not given), the GI50 in the assay with A498 is 20.9 µM (inactive); in the assay on A549, 13.9 µM (inactive); in the assay on CAKI-1, 9.91 µM (inactive); in the assay on CCRF-CEM, 0.91 µM (active); in the assay on DU-145, 10.5 µM (inactive); in the assay with HCT-15 it was 2.51 µM. Also, the GI50 in the assay on HOP-62 is 2.89 µM (inactive); in the assay on HT-29, 3.02 µM (inactive); in the assay with IGROV-1, 3.08 µM (inactive); with K562 it was 2.24 µM (inactive); in the assay with KM12, 4.16 µM (inactive); in the assay with MCF7, 3.29 µM (inactive). Further, the GI50 in the assay on MDA-MB-231 is 12 µM (inactive); with MOLT-4, 2.1 µM (inactive); with NCI-H23, 3.41 µM (inactive); with RPMI-8226, 1.47 µM (inactive); with SF-539 it was 4.66 µM (inactive); in the assay with SNB-75, 3.98 µM (inactive). In addition, the GI50 in the assay with U-251 was 3.05 µM (inactive); in the assay on UACC-62, 2.05 µM (inactive).

`O=c1[nH]c2cc(C(F)(F)F)ccc2nc1CBr`: the GI50 in the assay with A498 is 18.4 µM (inactive); with A549, 11 µM (inactive); in the assay with CAKI-1, 6.25 µM (inactive); with CCRF-CEM it was 1.04 µM (active); with DU-145, 14.3 µM (inactive); with HCT-15, 11.4 µM. Besides, the GI50 in the assay with HOP-62 is 8.05 µM (inactive); with HT-29 it was 11.4 µM (inactive); with IGROV-1 it was 10.6 µM (inactive); in the assay on K562 it was 5.73 µM (inactive); with KM12, 14.9 µM (inactive); with MCF7, 4.97 µM (inactive). Also, the GI50 with MDA-MB-231 is 13.5 µM (inactive); in the assay with MOLT-4, 1.56 µM (inactive); in the assay with NCI-H23, 15.4 µM (inactive); with RPMI-8226, 5.97 µM (inactive); with SF-539, 8.41 µM (inactive); in the assay with SNB-75, 16.6 µM (inactive). Moreover, the values for the GI50 in the assay with U-251 and in the assay on UACC-62 were 9.48 µM (inactive) and 9.51 µM (inactive), respectively.

As to `COc1cc2c(c(O)c1OC)CC1CCC(=O)N1C2c1cccc2ccccc12` (stereo not given), the GI50 with A498 is 18.5 µM (inactive); in the assay with A549, 31.6 µM (inactive); in the assay on CAKI-1, 19.5 µM (inactive); in the assay with CCRF-CEM, 30.8 µM (inactive); in the assay on DU-145, 18.5 µM (inactive); in the assay on HCT-15, 24.4 µM. Besides, the GI50 was 20.8 µM (inactive) with HOP-62; 18.2 µM (inactive) in the assay on HT-29; 24 µM (inactive) with IGROV-1; 35.3 µM (inactive) with K562; 23.9 µM (inactive) in the assay on KM12; 30.9 µM (inactive) with MCF7. Also, the GI50 is 16.4 µM (inactive) in the assay with MDA-MB-231; 26.1 µM (inactive) in the assay with MOLT-4; 24 µM (inactive) in the assay with NCI-H23; 19.3 µM (inactive) in the assay with RPMI-8226; 16.1 µM (inactive) with SF-539; 39 µM (inactive) in the assay with SNB-75. Besides, the values for the GI50 in the assay with U-251 and in the assay with UACC-62 were 19.8 µM (inactive) and 14.2 µM (inactive), respectively.

In the case of `C/C(=N\[N+](C)(C)C)c1ccc(C)c(C)c1`, the GI50 is 22.3 µM (inactive) with A498; 7.62 µM (inactive) with A549; > 10 µM (inactive) in the assay with CAKI-1; 35.4 µM (inactive) in the assay on CCRF-CEM; 64.3 µM (inactive) in the assay with DU-145; > 10 µM in the assay with HCT-15. The GI50 in the assay with HOP-62 is > 10 µM (inactive); with HT-29, 21.1 µM (inactive); in the assay on IGROV-1, > 100 µM (inactive); in the assay on K562 it was 46.1 µM (inactive); with KM12, 24.9 µM (inactive); with MCF7, > 10 µM (inactive). Also, the GI50 in the assay on MDA-MB-231 was > 10 µM (inactive); with MOLT-4 it was > 10 µM (inactive); with NCI-H23, 62.5 µM (inactive); with RPMI-8226, 54 µM (inactive); with SF-539, > 10 µM (inactive); in the assay on SNB-75, 53.5 µM (inactive). In addition, the GI50 is 39.4 µM (inactive) in the assay on U-251 and > 100 µM (inactive) with UACC-62.

On to `CC(C)(C)c1cc(OCc2nnc3sc(Cc4ccccc4)nn23)c(Cl)cc1OCc1nnc2sc(Cc3ccccc3)nn12`, for which the GI50 in the assay on A498 is 30.5 µM (inactive); in the assay on A549 it was 28.8 µM (inactive); in the assay on CAKI-1 it was 34.3 µM (inactive); with CCRF-CEM it was 3.27 µM (inactive); with DU-145, 33 µM (inactive); in the assay on HCT-15, 33.4 µM. Moreover, the GI50 in the assay with HOP-62 is 46.6 µM (inactive); in the assay with HT-29 it was 22.1 µM (inactive); in the assay with IGROV-1, 22 µM (inactive); in the assay with K562, 14.5 µM (inactive); in the assay with KM12, 18.8 µM (inactive); with MCF7, 17.7 µM (inactive). For the same molecule, the GI50 is 19.3 µM (inactive) with MDA-MB-231; 17.3 µM (inactive) in the assay on MOLT-4; 31.9 µM (inactive) with NCI-H23; 20.7 µM (inactive) in the assay with RPMI-8226; 30.8 µM (inactive) in the assay on SF-539; 15.3 µM (inactive) in the assay on SNB-75. Besides, the GI50 is 13.9 µM (inactive) in the assay on U-251 and 19.5 µM (inactive) in the assay with UACC-62.

For the molecule `COc1cc(NC=C2C(=O)OC(C)(C)OC2=O)c(OC)c(C)c1OC`, the GI50 with A498 was > 100 µM (inactive); with A549, > 100 µM (inactive); in the assay on CAKI-1, > 83.4 µM (inactive); in the assay on CCRF-CEM, > 100 µM (inactive); in the assay on DU-145, > 100 µM (inactive); in the assay on HCT-15 it was > 100 µM. For the same molecule, the GI50 in the assay with HOP-62, in the assay with HT-29, in the assay on IGROV-1, in the assay with K562, in the assay with KM12 and with MCF7 was > 100 µM (inactive) each time. Also, the GI50 with MDA-MB-231 is > 100 µM (inactive); with MOLT-4 it was > 100 µM (inactive); in the assay with NCI-H23, > 100 µM (inactive); in the assay on RPMI-8226, > 100 µM (inactive); in the assay with SF-539, > 100 µM (inactive); with SNB-75, > 88.3 µM (inactive). Moreover, the GI50 with U-251 and in the assay on UACC-62 was > 100 µM (inactive) throughout.
